Data as given in patent EP0450480B1, “Somatostatin Analogues” (The Administrators of The Tulane Educational Fund, priority 1990, dated 1991).
Marks after values point to notes of the source that are not given here. Square brackets hold non-standard residues; d marks the D form. Ends that are not written are not given here.

Key:
[1] = test system: MiaPaCa cells; experiment: Growth of MiaPaCa cells measured by cell counts; assay type: cell-based, human
[2] = test system: human pancreatic MiaPaCa cancer cell line; experiment: Inhibition of 3H-thymidine incorporation into DNA, MiaPaCa cells; assay type: cell-based
Description: The ability of peptides of Formula I to inhibit incorporation of [³H]thymidine into DNA of monolayer cultures the small cell lung cancer line H-69 and MiaPaCa cell line is assayed as described by Kern et al. (Cancer Res., 45, 5436 (1985).
1x10⁵ cells are plated with DME media containing 10% fetal calf serum (FCS) on Day 0. After 24 hours media is removed and replaced with DME media without serum and incubated at 37°C for 2 days. Media was then removed and replaced with DME media containing 5% FCS with or without somatostatin analog. Media with peptides was changed daily for 4 days. On day 4, 1 »Ci ³H-thymidine added and incubated an additional 17 hrs. Media is then removed and cells recovered by trypsination. DNA extracted with 1 N perchloric acid and the radioactivity measured.

[3] = in vivo; cited from earlier work
[4] = test system: GH release; settings: relative to somatostatin; cited from earlier work
[5] = test system: human mammary cell line MDA-MB-231; settings: at 10 »g dose; cited from earlier work

**Q.** With `N[C@@H](Cc1ccc(N(CCCl)CCCl)cc1)C(=O)O` [Melphalan, 4-[bis{2-chloroethyl}amino]-phenylalanine] as the molecule, how does the “% Decrease in cell number” value ([1]; Dose 10⁻⁶ M) read?
**A.** Its value is 29** %.

**Q.** What about the “% Decrease in cell number” value ([1]; Dose 10⁻⁷ M) of the same molecule?
**A.** Its value is 1%.

**Q.** What about the “% Decrease in cell number” value ([1]; Dose 10⁻⁸ M) of the same molecule?
**A.** Its value is 1%.

**Q.** And the “% inhibition of ³H-thymidine incorp.” value ([2]; Dose 10⁻⁶ M)?
**A.** Its value is 20%.

**Q.** What about the “% inhibition of ³H-thymidine incorp.” value ([2]; Dose 10⁻⁷ M) of the same molecule?
**A.** Its value is 18%.

**Q.** With `C[C@H](N)C(=O)NCC(=O)N[C@H]1CSSC[C@@H](C(=O)O)NC(=O)[C@H](CO)NC(=O)[C@H]([C@@H](C)O)NC(=O)[C@H](Cc2ccccc2)NC(=O)[C@H]([C@@H](C)O)NC(=O)[C@H](CCCCN)NC(=O)[C@H](Cc2c[nH]c3ccccc23)NC(=O)[C@H](Cc2ccccc2)NC(=O)[C@H](Cc2ccccc2)NC(=O)[C@H](CC(N)=O)NC(=O)[C@H](CCCCN)NC1=O` [SS-14] as the molecule, how does the half-life in circulation [3] read?
**A.** The half-life in circulation was “about 3 min”.

**Q.** Which “times more potent than somatostatin in test for inhibition of GH release” value [4] does the source give for D-Phe-Cys-Tyr-D-Trp-Lys-Val-Cys-Thr-NH₂ here?
**A.** The value was “more than 100 times”.

**Q.** With “[dF]CY[dW]KVCW-NH2 (cysteine pairing not given here)” as the molecule, how does the “times more potent than somatostatin in test for inhibition of GH release” value [4] read?
**A.** The value was “more than 100 times”.

**Q.** With “pGlu-His-Trp-Ser-Tyr-D-Lys[Ahx-A₂bu(SAL)₂(Cu)]-Leu-Arg-Pro-Gly-NH₂” as the molecule, how does the “inhibits the [³H]thymidine incorporation into DNA” value [5] read?
**A.** The value was 87%.
